For experiment [1], the system named is KRAS G12D mutant human lung cancer cell A427. Nature of the experiment: 3D cell proliferation inhibition assay, A427. The experiment is classed as cell-based. To be noted: A-427, 168 h, A427, 7 days, CTG. The method in brief:
(§1)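 Cells were seeded at 5×10^2 cells/well in low-adsorption plates with compound (10000–0.026 nM final, 0.2% DMSO) and grown for 7 days at 37 °C, 5% CO2. Viability was read by CTG luminescence after 60 min at room temperature. IC50 came from log concentration–inhibition curve fits, normalised to DMSO and medium-only controls.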

Experiment [2] addresses T1, Human KRAS G12D 6His-tagged (Homo sapiens, UniProt P01116, G12D).
T1 construct: purchased PerkinElmer
As to the kind of experiment: KRAS-G12D/GTP binding assay (HTRF). A digest of the protocol: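 HTRF kit format: 6His-tagged KRAS G12D incubated with compound (final 0.02-5000 nM, 0.5% DMSO), anti-6His Eu cryptate antibody and GTP Red reagent for 1 h at 25° C. 665/620 nm ratio versus control gave inhibition rates; IC50 by nonlinear fit.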
In general terms: TR-FRET usually uses a lanthanide donor and a delayed reading to cut background.

The subject of experiment [3] is KRAS G12D mutant human gastric cancer cell AGS. As to the kind of experiment: 3D cell proliferation inhibition assay, AGS. The experiment is classed as cell-based. To be noted: 168 h, 7 days, CTG. The method in brief: as §1

SMILES strings stand for the structures. Some results are limits rather than exact numbers.

T1 sequence (P01116 1-188 isoform P01116-2 G12D): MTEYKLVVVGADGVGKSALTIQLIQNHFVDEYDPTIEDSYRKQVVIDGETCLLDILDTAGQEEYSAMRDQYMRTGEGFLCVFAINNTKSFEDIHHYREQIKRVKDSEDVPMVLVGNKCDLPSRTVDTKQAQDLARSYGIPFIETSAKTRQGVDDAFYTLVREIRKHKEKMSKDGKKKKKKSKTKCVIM

With `C#Cc1c(F)ccc2cc(O)cc(-c3ncc4c(N5CC6CCC(C5)N6)nc(OCC(C)(C)CN5CCN(CC6CCC7(CC6)CCN(C(=O)c6ccc(OC)c(N8CCC(=O)NC8=O)c6)CC7)CC5)nc4c3F)c12` [Example 26, 1-(5-(9-((4-(3-((4-(3,8-diazabicyclo[3.2.1]octan-3-yl)-7-(8-ethynyl-7-fluoro-3-hydroxynaphthalen-1-yl)-8-fluoropyrido[4,3-d]pyrimidin-2-yl)oxy)-2,2-dimethylpropyl)piperazin-1-yl)methyl)-3-azaspiro[5.5]undecane-3-carbonyl)-2-methoxyphenyl)dihydropyrimidine-2,4(1H,3H)-dione], the IC50 in experiment [1] (class symbols), in experiment [2] (class symbols) and in experiment [3] (class symbols) was 0.05 to 0.1 µM throughout.
`CCc1c(F)ccc2cc(O)cc(-c3ncc4c(N5CC6CCC(C5)N6)nc(OCC5(CN6CCN(CCCC7CCN(C(=O)c8ccc(Cl)c(N9CCC(=O)NC9=O)c8)CC7)CC6)CC5)nc4c3F)c12` [Example 22, 1-(5-(4-(3-(4-((1-(((4-(3,8-diazabicyclo[3.2.1]octan-3-yl)-7-(8-ethyl-7-fluoro-3-hydroxynaphthalen-1-yl)-8-fluoropyrido[4,3-d]pyrimidin-2-yl)oxy)methyl)cyclopropyl)methyl)piperazin-1-yl)propyl)piperidine-1-carbonyl)-2-chlorophenyl)dihydropyrimidine-2,4(1H,3H)-dione]: the concentration for half-maximal inhibition (IC50) – broadly, the concentration needed to halve the response being measured – in experiment [1] (class symbols) is 0.05 to 0.1 µM; in experiment [2] (class symbols), at most 0.05 µM; in experiment [3] (class symbols), at most 0.05 µM.
For the compound `CCc1cccc2cc(O)cc(-c3ncc4c(N5CC6CCC(C5)N6)nc(OCC5(CN6CCN(CCCC7CCN(C(=O)c8ccc(Cl)c(N9CCC(=O)NC9=O)c8)CC7)CC6)CC5)nc4c3F)c12` [Example 19, 1-(5-(4-(3-(4-((1-(((4-(3,8-diazabicyclo[3.2.1]octan-3-yl)-7-(8-ethyl-3-hydroxynaphthalen-1-yl)-8-fluoropyrido[4,3-d]pyrimidin-2-yl)oxy)methyl)cyclopropyl)methyl)piperazin-1-yl)propyl)piperidine-1-carbonyl)-2-chlorophenyl)dihydropyrimidine-2,4(1H,3H)-dione], the IC50 in experiment [1] (class symbols) is 0.1 to 0.5 µM; in experiment [2] (class symbols), at most 0.05 µM; in experiment [3] (class symbols) it was at most 0.05 µM.
For the compound `C#Cc1c(F)ccc2cc(O)cc(-c3ncc4c(N5CC6CCC(C5)N6)nc(OCC5(CN6CCN(CCCC7CCC8(CC7)CCN(C(=O)c7ccc(Cl)c(N9CCC(=O)NC9=O)c7)CC8)CC6)CC5)nc4c3F)c12` [Example 7, 1-(5-(9-(3-(4-((1-(((4-(3,8-diazabicyclo[3.2.1]octan-3-yl)-7-(8-ethynyl-7-fluoro-3-hydroxynaphthalen-1-yl)-8-fluoropyrido[4,3-d]pyrimidin-2-yl)oxy)methyl)cyclopropyl)methyl)piperazin-1-yl)propyl)-3-azaspiro[5.5]undecane-3-carbonyl)-2-chlorophenyl)dihydropyrimidine-2,4(1H,3H)-dione], the IC50 in experiment [1] (class symbols), in experiment [2] (class symbols) and in experiment [3] (class symbols) was at most 0.05 µM in each case.
Regarding `C#Cc1c(F)ccc2cc(O)cc(-c3ncc4c(N5CC6CCC(C5)N6)nc(OCC5(CN6CCN(CCCC7CCN(C(=O)c8ccc(OC)c(N9CCC(=O)NC9=O)c8)CC7)CC6)CC5)nc4c3F)c12` [Example 8, 1-(5-(4-(3-(4-((1-(((4-(3,8-diazabicyclo[3.2.1]octan-3-yl)-7-(8-ethynyl-7-fluoro-3-hydroxynaphthalen-1-yl)-8-fluoropyrido[4,3-d]pyrimidin-2-yl)oxy)methyl)cyclopropyl)methyl)piperazin-1-yl)propyl)piperidine-1-carbonyl)-2-methoxyphenyl)dihydropyrimidine-2,4(1H,3H)-dione], the IC50 in experiment [1] (class symbols) is 0.05 to 0.1 µM; in experiment [2] (class symbols) it was at most 0.05 µM; in experiment [3] (class symbols), at most 0.05 µM.
`C#Cc1c(F)ccc2cc(O)cc(-c3ccc4c(N5CC6CCC(C5)N6)nc(OCC5(CN6CCN(CC7CCC8(CC7)CCN(C(=O)c7ccc(C)c(N9CCC(=O)NC9=O)c7)CC8)CC6)CC5)nc4c3F)c12` [Example 42, 1-(5-(9-((4-((1-(((4-(3,8-diazabicyclo[3.2.1]octan-3-yl)-7-(8-ethynyl-7-fluoro-3-hydroxynaphthalen-1-yl)-8-fluoroquinazolin-2-yl)oxy)methyl)cyclopropyl)methyl)piperazin-1-yl)methyl)-3-azaspiro[5.5]undecane-3-carbonyl)-2-methylphenyl)dihydropyrimidine-2,4(1H,3H)-dione]: the IC50 in experiment [1] (class symbols), in experiment [2] (class symbols) and in experiment [3] (class symbols) was at most 0.05 µM throughout.
`CCc1c(F)ccc2cc(O)cc(-c3ncc4c(N5CC6CCC(C5)N6)nc(OCC5(CN6CCN(CC7CCC8(CC7)CCN(C(=O)c7ccc(OC)c(N9CCC(=O)NC9=O)c7)CC8)CC6)CC5)nc4c3F)c12` [Example 15, 1-(5-(9-((4-((1-(((4-(3,8-diazabicyclo[3.2.1]octan-3-yl)-7-(8-ethyl-7-fluoro-3-hydroxynaphthalen-1-yl)-8-fluoropyrido[4,3-d]pyrimidin-2-yl)oxy)methyl)cyclopropyl)methyl)piperazin-1-yl)methyl)-3-azaspiro[5.5]undecane-3-carbonyl)-2-methoxyphenyl)dihydropyrimidine-2,4(1H,3H)-dione]: the IC50 in experiment [1] (class symbols), in experiment [2] (class symbols) and in experiment [3] (class symbols) was at most 0.05 µM throughout.
In the case of `C#Cc1c(F)ccc2cc(O)cc(-c3ncc4c(N5CC6CCC(C5)N6)nc(OCC(C)CN5CCN(CC6CCC7(CC6)CCN(C(=O)c6ccc(OC)c(N8CCC(=O)NC8=O)c6)CC7)CC5)nc4c3F)c12` (stereo not drawn) [Example 84, 1-(5-(9-((4-(3-((4-(3,8-diazabicyclo[3.2.1]octan-3-yl)-7-(8-ethynyl-7-fluoro-3-hydroxynaphthalen-1-yl)-8-fluoropyrido[4,3-d]pyrimidin-2-yl)oxy)-2-methylpropyl)piperazin-1-yl)methyl)-3-azaspiro[5.5]undecane-3-carbonyl)-2-methoxyphenyl)dihydropyrimidine-2,4(1H,3H)-dione], the concentration for half-maximal inhibition (IC50) in experiment [1] (numeric values) came to 0.0065 µM; in experiment [2] (numeric values) it was 0.00247 µM; in experiment [3] (numeric values), 0.00105 µM.
As for `C#Cc1c(F)ccc2cc(O)cc(-c3ncc4c(N5CC6CCC(C5)N6)nc(OCC5(CN6CCN(CCC7CCN(C(=O)c8ccc(Cl)c(N9CCC(=O)NC9=O)c8)CC7)CC6)CC5)nc4c3F)c12` [Example 3, 1-(5-(4-(2-(4-((1-(((4-(3,8-diazabicyclo[3.2.1]octan-3-yl)-7-(8-ethynyl-7-fluoro-3-hydroxynaphthalen-1-yl)-8-fluoropyrido[4,3-d]pyrimidin-2-yl)oxy)methyl)cyclopropyl)methyl)piperazin-1-yl)ethyl)piperidine-1-carbonyl)-2-chlorophenyl)dihydropyrimidine-2,4(1H,3H)-dione], the IC50 was 1 to 10 µM in experiment [1] (class symbols), at most 0.05 µM in experiment [2] (class symbols) and at most 0.05 µM in experiment [3] (class symbols).
For `C#Cc1c(F)ccc2cc(O)cc(-c3ncc4c(N5CC6CCC(C5)N6)nc(OCC5(CN6CCN(CCC7CCC8(CC7)CCN(C(=O)c7ccc(Cl)c(N9CCC(=O)NC9=O)c7)CC8)CC6)CC5)nc4c3F)c12` [Example 18, 1-(5-(9-(2-(4-((1-(((4-(3,8-diazabicyclo[3.2.1]octan-3-yl)-7-(8-ethynyl-7-fluoro-3-hydroxynaphthalen-1-yl)-8-fluoropyrido[4,3-d]pyrimidin-2-yl)oxy)methyl)cyclopropyl)methyl)piperazin-1-yl)ethyl)-3-azaspiro[5.5]undecane-3-carbonyl)-2-chlorophenyl)dihydropyrimidine-2,4(1H,3H)-dione], the IC50 in experiment [1] (class symbols), in experiment [2] (class symbols) and in experiment [3] (class symbols) was at most 0.05 µM in each case.

(Values after patent US20260166159A1, “KRAS G12D DEGRADATION AGENT, AND PREPARATION METHOD AND USE THEREFOR” (LEADINGTAC PHARMACEUTICAL (SHAOXING) CO., LTD., priority 2022, published 2026).)
